Patent publication US20080255240A1, “Sulfonamide Derivatives” (Novo Nordisk A/S, priority 2004, published 2008)
Counter-ions that a name gives are not always drawn.

Row | SMILES | melting point
1 | Cc1cc(C(C)(C)C)c(O)c(S(=O)(=O)Nc2ccc(C#N)c(C(F)(F)F)c2)c1 | 159 to 162 °C
2 | Cc1cc(C(C)(C)C)c(O)c(S(=O)(=O)Nc2ccc([N+](=O)[O-])cc2Cl)c1 [Example 1, 3-tert-Butyl-N-(2-chloro-4-nitro-phenyl)-2-hydroxy-5-methyl-benzenesulfonamide] | 239 to 243 °C
3 | Cc1cc(C(C)(C)C)c(O)c(S(=O)(=O)Nc2ccc(C#N)cc2Cl)c1 [Example 3, 3-tert-Butyl-N-(2-chloro-4-cyano-phenyl)-2-hydroxy-5-methyl-benzenesulfonamide] | 101 to 105 °C

The next lines start with the values.

Row | melting point | SMILES
4 | 106 to 108 °C | CCC(C)c1cc(C(C)(C)C)c(O)c(S(=O)(=O)Nc2ccc([N+](=O)[O-])cc2Cl)c1 (stereo not shown) (as salt: Na) [Example 7, 5-sec-Butyl-3-tert-butyl-N-(2-chloro-4-nitro-phenyl)-2-hydroxy-benzenesulfonamide]
5 | 184 to 185 °C | Cc1cc(C(C)(C)C)c(O)c(S(=O)(=O)Nc2ccc(I)cc2)c1 [Example 4, 3-tert-Butyl-2-hydroxy-N-(4-iodo-phenyl)-5-methyl-benzenesulfonamide]
6 | 130 to 134 °C | COc1ccc(NS(=O)(=O)c2cc(C)cc(C(C)(C)C)c2O)cc1 [Example 5, 3-tert-Butyl-2-hydroxy-N-(4-methoxy-phenyl)-5-methyl-benzenesulfonamide]
7 | 158 to 161 °C | CC(C)(C)c1cc(C(C)(C)C)c(O)c(S(=O)(=O)Nc2ccc([N+](=O)[O-])cc2Cl)c1 [Example 6, 3,5-Di-tert-butyl-N-(2-chloro-4-nitro-phenyl)-2-hydroxy-benzenesulfonamide]
